We go through one substance from patent US20120148718A1, “METHOD FOR CONDITIONING ANIMAL FEED” (priority 2009, published 2012).

This data set can be described thus: Surface tension of 5% solutions in water (Fisher Surface Tensiomat Model 21). To be noted: surfactants, Table 2. The format is physicochemical. The procedure:
The surface tensions of various organic acids and different formulations of the present invention were determined. Solutions were diluted to 5% in water and tested using a Fisher Surface Tensiomat Model 21.
Polysorbate-80 is allowed only for use in milk replacers and not for feed application. In the European Union ethoxylated castor oil surfactant is allowed for use in all animals. In order to determine a suitable surfactant to replace polysorbate-80, the surface tensions of different PEG ethoxylated castor oil surfactants were tested in 5% solutions.
The two best formulations from Example 1 were prepared using polysorbate-80 or castor oil PEG-60. The surface tension of 5% solutions of each formulation in water was determined.

As for Polysorbate-80, the “Surface Tension” value is listed as 40.57 dynes/cm.
